Test results from US7585460B2, “Method for inhibiting the biological acidification of water in contact with materials containing sulfur” (ENI S.p.A., priority 2003, dated 2009).

Tests used:
[1] = tested on: Thiobacilli (microbial consortium); test: Comparison of NaCl and SLS, TM medium with sulfur flowers and inoculated mixed culture (Example 6); type: cell-based, Thiobacillus; details: for O.D. / p.H.: C: 20 mg/l of SLS
Experimental: The experiment was aimed at comparing the action of SLS, a known bacteriostatic for Thiobacilli, and Sodium Chloride on the same microbial consortium.
A series of 6 100 ml flasks containing 50 ml of TM medium (with 0.4 g of sulfur flowers), were inoculated with 1 ml of mixed culture containing 10^8 cells/ml.
• A—2 control flasks containing TM and sulfur, without NaCl; • B—2 flasks with TM, sulfur and 33 g/l of NaCl; • C—2 flasks with TM, sulfur and 20 mg/l of SLS (concentration used in literature as bacteriostatic) The pH values and the bacterial growth were measured over a period of 34 days, by means of the increase in the absorbance.

Thiobacilli = details: bacteriostatic product; literature (Clark et al. 1998); cited from earlier work
Thiobacilli (consortium) [2] = test: Effect of different salts on acidification, TM medium with sulfur powder and inoculated mixed culture (Example 7); type: cell-based, Thiobacillus
Experimental: The verification is aimed at discovering the effects deriving from the presence of different salts at varying concentrations on the same consortium.
A series of 12 100 ml flasks containing 50 ml of TM medium (with 0.4 g of sulfur powder), was inoculated with 1 ml of mixed culture containing 10^8 cells/ml.
• 3 control flasks containing TM and sulfur, with NaCl (0.16 M, 0.33 M, 0.56 M); • 3 flasks with TM, sulfur and Na2SO4 (0.12 M, 0.24 M, 0.56 M); • 3 flasks with TM, sulfur and KCl (0.13 M, 0.26 M, 0.56 M); • 3 flasks with TM, sulfur and KNO3 (0.09 M, 0.19 M, 0.56 M) The data collected are listed in Table 6.

Thiobacilli (consortium) [3] = test: as above; type: cell-based, Thiobacillus; details: salt 0.5 M, day 28

Compound: CCCCCCCCCCCCOS(=O)(=O)[O-].[Na+] [SLS, Sodium Lauryl Sulfate, reference compound]
- inhibition of the acidification of water in contact with elemental sulfur ([1]; 33 g/l NaCl, 20 mg/l SLS): capable of inhibiting the acidification
- O.D. ([1]; day 0): 0.014
- p.H. ([1]; day 0): 6.0
- O.D. ([1]; day 3): 0.013
- p.H. ([1]; day 3): 4.5
- O.D. ([1]; day 5): 0.042
- p.H. ([1]; day 5): 4.5
- O.D. ([1]; day 8): 0.073
- p.H. ([1]; day 8): 4.0
- O.D. ([1]; day 11): 0.067
- p.H. ([1]; day 11): 4.0
- O.D. ([1]; day 16): 0.098
- p.H. ([1]; day 16): 3.8
- O.D. ([1]; day 21): 0.080
- p.H. ([1]; day 21): 3.8
- O.D. ([1]; day 23): 0.035
- p.H. ([1]; day 23): 3.8
- O.D. ([1]; day 28): 0.033
- p.H. ([1]; day 28): 3.2
- O.D. ([1]; day 31): 0.020
- p.H. ([1]; day 31): 3.2
- reduction of corrosion of metallic containers used for transporting or containing sulfur (Thiobacilli): effective for reducing the corrosion

Compound: O=S(=O)([O-])[O-].[Na+].[Na+] [Na2SO4]
- PH (Thiobacilli (consortium) [2]; salt 0.12 M, day 0): 6.0
- PH (Thiobacilli (consortium) [2]; salt 0.12 M, day 2): 6.0
- PH (Thiobacilli (consortium) [2]; salt 0.12 M, day 6): 3.5
- PH (Thiobacilli (consortium) [2]; salt 0.12 M, day 9): 2.8
- PH (Thiobacilli (consortium) [2]; salt 0.12 M, day 12): 2.8
- PH (Thiobacilli (consortium) [2]; salt 0.12 M, day 15): 2.8
- PH (Thiobacilli (consortium) [2]; salt 0.12 M, day 18): 2.5
- PH (Thiobacilli (consortium) [2]; salt 0.12 M, day 20): 1.8
- PH (Thiobacilli (consortium) [2]; salt 0.12 M, day 24): 1.8
- PH (Thiobacilli (consortium) [2]; salt 0.12 M, day 28): 1.6
- PH (Thiobacilli (consortium) [2]; salt 0.12 M, day 30): 1.6
- PH (Thiobacilli (consortium) [2]; salt 0.12 M, day 40): 1.4
- PH (Thiobacilli (consortium) [2]; salt 0.24 M, day 0): 6.0
- PH (Thiobacilli (consortium) [2]; salt 0.24 M, day 2): 6.0
- PH (Thiobacilli (consortium) [2]; salt 0.24 M, day 6): 4.5
- PH (Thiobacilli (consortium) [2]; salt 0.24 M, day 9): 4.0
- PH (Thiobacilli (consortium) [2]; salt 0.24 M, day 12): 3.5
- PH (Thiobacilli (consortium) [2]; salt 0.24 M, day 15): 3.0
- PH (Thiobacilli (consortium) [2]; salt 0.24 M, day 18): 2.8
- PH (Thiobacilli (consortium) [2]; salt 0.24 M, day 20): 2.0
- PH (Thiobacilli (consortium) [2]; salt 0.24 M, day 24): 2.0
- PH (Thiobacilli (consortium) [2]; salt 0.24 M, day 28): 1.7
- PH (Thiobacilli (consortium) [2]; salt 0.24 M, day 30): 1.5
- PH (Thiobacilli (consortium) [2]; salt 0.24 M, day 40): 1.5
- PH (Thiobacilli (consortium) [2]; salt 0.56 M, day 0): 6.0
- PH (Thiobacilli (consortium) [2]; salt 0.56 M, day 2): 6.0
- PH (Thiobacilli (consortium) [2]; salt 0.56 M, day 6): 6.0
- PH (Thiobacilli (consortium) [2]; salt 0.56 M, day 9): 6.0
- PH (Thiobacilli (consortium) [2]; salt 0.56 M, day 12): 6.0
- PH (Thiobacilli (consortium) [2]; salt 0.56 M, day 15): 5.9
- PH (Thiobacilli (consortium) [2]; salt 0.56 M, day 18): 5.9
- PH (Thiobacilli (consortium) [2]; salt 0.56 M, day 20): 5.9
- PH (Thiobacilli (consortium) [2]; salt 0.56 M, day 24): 5.9
- PH (Thiobacilli (consortium) [2]; salt 0.56 M, day 28): 5.9
- PH (Thiobacilli (consortium) [2]; salt 0.56 M, day 30): 5.9
- PH (Thiobacilli (consortium) [2]; salt 0.56 M, day 40): 5.8

Compound: [Cl-].[K+] [KCl]
- PH (Thiobacilli (consortium) [2]; salt 0.13 M, day 0): 6.0
- PH (Thiobacilli (consortium) [2]; salt 0.13 M, day 2): 6.0
- PH (Thiobacilli (consortium) [2]; salt 0.13 M, day 6): 4.5
- PH (Thiobacilli (consortium) [2]; salt 0.13 M, day 9): 4.0
- PH (Thiobacilli (consortium) [2]; salt 0.13 M, day 12): 3.5
- PH (Thiobacilli (consortium) [2]; salt 0.13 M, day 15): 3.0
- PH (Thiobacilli (consortium) [2]; salt 0.13 M, day 18): 3.0
- PH (Thiobacilli (consortium) [2]; salt 0.13 M, day 20): 3.0
- PH (Thiobacilli (consortium) [2]; salt 0.13 M, day 24): 2.5
- PH (Thiobacilli (consortium) [2]; salt 0.13 M, day 28): 2.5
- PH (Thiobacilli (consortium) [2]; salt 0.13 M, day 30): 2.4
- PH (Thiobacilli (consortium) [2]; salt 0.13 M, day 40): 1.5
- PH (Thiobacilli (consortium) [2]; salt 0.26 M, day 0): 6.0
- PH (Thiobacilli (consortium) [2]; salt 0.26 M, day 2): 6.0
- PH (Thiobacilli (consortium) [2]; salt 0.26 M, day 6): 5.5
- PH (Thiobacilli (consortium) [2]; salt 0.26 M, day 9): 5.5
- PH (Thiobacilli (consortium) [2]; salt 0.26 M, day 12): 5.5
- PH (Thiobacilli (consortium) [2]; salt 0.26 M, day 15): 5.5
- PH (Thiobacilli (consortium) [2]; salt 0.26 M, day 18): 5.2
- PH (Thiobacilli (consortium) [2]; salt 0.26 M, day 20): 5.2
- PH (Thiobacilli (consortium) [2]; salt 0.26 M, day 24): 5.0
- PH (Thiobacilli (consortium) [2]; salt 0.26 M, day 28): 5.0
- PH (Thiobacilli (consortium) [2]; salt 0.26 M, day 30): 5.0
- PH (Thiobacilli (consortium) [2]; salt 0.26 M, day 40): 4.9
- PH (Thiobacilli (consortium) [2]; salt 0.56 M, day 0): 6.0
- PH (Thiobacilli (consortium) [2]; salt 0.56 M, day 2): 6.0
- PH (Thiobacilli (consortium) [2]; salt 0.56 M, day 6): 6.0
- PH (Thiobacilli (consortium) [2]; salt 0.56 M, day 9): 6.0
- PH (Thiobacilli (consortium) [2]; salt 0.56 M, day 12): 6.0
- PH (Thiobacilli (consortium) [2]; salt 0.56 M, day 15): 6.0
- PH (Thiobacilli (consortium) [2]; salt 0.56 M, day 18): 6.0
- PH (Thiobacilli (consortium) [2]; salt 0.56 M, day 20): 6.0
- PH (Thiobacilli (consortium) [2]; salt 0.56 M, day 24): 6.0
- PH (Thiobacilli (consortium) [2]; salt 0.56 M, day 28): 6.0
- PH (Thiobacilli (consortium) [2]; salt 0.56 M, day 30): 6.0
- PH (Thiobacilli (consortium) [2]; salt 0.56 M, day 40): 5.8

Compound: O=[N+]([O-])[O-].[K+] [KNO3]
- PH (Thiobacilli (consortium) [3]): 6.0
- PH (Thiobacilli (consortium) [2]; salt 0.09 M, day 0): 6.0
- PH (Thiobacilli (consortium) [2]; salt 0.09 M, day 2): 6.0
- PH (Thiobacilli (consortium) [2]; salt 0.09 M, day 6): 3.8
- PH (Thiobacilli (consortium) [2]; salt 0.09 M, day 9): 3.0
- PH (Thiobacilli (consortium) [2]; salt 0.09 M, day 12): 3.0
- PH (Thiobacilli (consortium) [2]; salt 0.09 M, day 15): 3.0
- PH (Thiobacilli (consortium) [2]; salt 0.09 M, day 18): 3.0
- PH (Thiobacilli (consortium) [2]; salt 0.09 M, day 20): 3.0
- PH (Thiobacilli (consortium) [2]; salt 0.09 M, day 24): 3.0
- PH (Thiobacilli (consortium) [2]; salt 0.09 M, day 28): 3.0
- PH (Thiobacilli (consortium) [2]; salt 0.09 M, day 30): 3.0
- PH (Thiobacilli (consortium) [2]; salt 0.09 M, day 40): 3.0
- PH (Thiobacilli (consortium) [2]; salt 0.19 M, day 0): 6.0
- PH (Thiobacilli (consortium) [2]; salt 0.19 M, day 2): 6.0
- PH (Thiobacilli (consortium) [2]; salt 0.19 M, day 6): 4.8
- PH (Thiobacilli (consortium) [2]; salt 0.19 M, day 9): 4.0
- PH (Thiobacilli (consortium) [2]; salt 0.19 M, day 12): 4.0
- PH (Thiobacilli (consortium) [2]; salt 0.19 M, day 15): 4.0
- PH (Thiobacilli (consortium) [2]; salt 0.19 M, day 18): 4.0
- PH (Thiobacilli (consortium) [2]; salt 0.19 M, day 20): 4.0
- PH (Thiobacilli (consortium) [2]; salt 0.19 M, day 24): 4.0
- PH (Thiobacilli (consortium) [2]; salt 0.19 M, day 28): 4.0
- PH (Thiobacilli (consortium) [2]; salt 0.19 M, day 30): 3.3
- PH (Thiobacilli (consortium) [2]; salt 0.19 M, day 40): 3.2
- PH (Thiobacilli (consortium) [2]; salt 0.5 M, day 0): 6.0
- PH (Thiobacilli (consortium) [2]; salt 0.5 M, day 2): 6.0
- PH (Thiobacilli (consortium) [2]; salt 0.5 M, day 6): 6.0
- PH (Thiobacilli (consortium) [2]; salt 0.5 M, day 9): 6.0
- PH (Thiobacilli (consortium) [2]; salt 0.5 M, day 12): 6.0
- PH (Thiobacilli (consortium) [2]; salt 0.5 M, day 15): 6.0
- PH (Thiobacilli (consortium) [2]; salt 0.5 M, day 18): 6.0
- PH (Thiobacilli (consortium) [2]; salt 0.5 M, day 20): 6.0
- PH (Thiobacilli (consortium) [2]; salt 0.5 M, day 24): 6.0
- PH (Thiobacilli (consortium) [2]; salt 0.5 M, day 30): 6.0
- PH (Thiobacilli (consortium) [2]; salt 0.5 M, day 40): 5.8
